Laboratory results published in patent US10093683B2, “Factor XIa inhibitors” (Merck Sharp & Dohme Corp., priority 2014, dated 2018).

Each compound was assayed against human Factor XIa (Homo sapiens (Human), UniProt P03951) (assay: Factor XIa Assay). Details: purified human Factor XIa 40 pM, Z-Gly-Pro-Arg-AFC 100 μM, pH 7.4; read-out: FXIa Ki.
human Factor XIa, sequence (P03951 388-625): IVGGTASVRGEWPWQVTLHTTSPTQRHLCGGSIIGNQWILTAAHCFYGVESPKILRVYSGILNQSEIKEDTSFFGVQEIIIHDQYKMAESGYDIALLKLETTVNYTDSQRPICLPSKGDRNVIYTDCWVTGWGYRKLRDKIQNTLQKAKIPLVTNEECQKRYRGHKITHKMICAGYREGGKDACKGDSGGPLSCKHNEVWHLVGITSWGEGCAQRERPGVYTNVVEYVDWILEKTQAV
human Factor XIa, sequence (P03951 19-387 partner): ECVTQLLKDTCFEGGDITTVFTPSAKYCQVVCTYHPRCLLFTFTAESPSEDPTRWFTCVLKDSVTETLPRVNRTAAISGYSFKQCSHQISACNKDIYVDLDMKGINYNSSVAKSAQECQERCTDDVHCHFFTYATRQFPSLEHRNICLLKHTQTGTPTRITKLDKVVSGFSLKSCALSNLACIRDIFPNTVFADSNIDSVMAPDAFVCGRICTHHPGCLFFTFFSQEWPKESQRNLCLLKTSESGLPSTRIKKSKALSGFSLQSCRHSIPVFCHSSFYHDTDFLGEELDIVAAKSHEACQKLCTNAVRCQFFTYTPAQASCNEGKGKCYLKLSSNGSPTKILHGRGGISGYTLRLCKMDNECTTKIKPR
Assay type: biochemical
Outline: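 Ki derived from the dependence of Vo/Vi on inhibitor concentration under a competitive-inhibition model, after pre-equilibration of enzyme and inhibitor. Reaction: 40 pM human FXIa, 100 μM Z-Gly-Pro-Arg-AFC, HEPES 50 mM pH 7.4 with NaCl, CaCl2 and PEG 8000; run at room temperature or 37° C.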
A Ki of 3780 nM was found for `O=C1Nc2ccc(Cl)cc2[C@@]2(CCN(C(=O)[C@@H](Cc3ccccc3)C(=O)Nc3ccc(C(=O)O)cc3)C2)O1` [Example 121d, 4-((S)-2-benzyl-3-((R)-6-chloro-2-oxo-1,2-dihydrospiro[benzo[d][1,3]oxazine-4,3′-pyrrolidin]-1′-yl)-3-oxopropanamido)benzoic acid] in this work.
A Ki of 5000 nM was found for `COC(=O)Nc1ccc(C(=O)N[C@@H](Cc2ccccc2)C(=O)N2CCC[C@]3(C2)OC(=O)Nc2ccc(F)cc23)cc1` [Example 8b, methyl (4-(((S)-1-((S)-6-fluoro-2-oxo-1,2-dihydrospiro[benzo[d][1,3]oxazine-4,3′-piperidin]-1′-yl)-1-oxo-3-phenylpropan-2-yl)carbamoyl)phenyl)carbamate] in this work.
A Ki of 360 nM was found for `COC(=O)Nc1ccc(-c2ncc(C(Cc3ccccc3)C(=O)N3CCC[C@@]4(C3)OC(=O)Nc3ccc(Cl)c(F)c34)[nH]2)cc1` (single isomer, unassigned) [Example 130A] in this work.
A Ki of 10000 nM was found for `O=C1Nc2ccc(Cl)cc2[C@@]2(CCCN(C(=O)[C@H](Cc3ccccc3)Nc3ccc(-c4cc[nH]n4)cn3)C2)O1` [Example 296, (R)-1′-((5-(1H-pyrazol-3-yl)pyridin-2-yl)-L-phenylalanyl)-6-chlorospiro[benzo[d][1,3]oxazine-4,3′-piperidin]-2(1H)-one] in this work.
A Ki of 97.7 nM was found for `COC(=O)Nc1ccc(C(=O)N[C@@H](CCS(C)(=O)=O)C(=O)N2CCC[C@@]3(C2)OC(=O)Nc2ccc(Cl)cc23)cc1` [Example 59, methyl (4-(((S)-1-((R)-6-chloro-2-oxo-1,2-dihydrospiro[benzo[d][1,3]oxazine-4,3′-piperidin]-1′-yl)-4-(methylsulfonyl)-1-oxobutan-2-yl)carbamoyl)phenyl)carbamate] in this work.
A Ki of 20.7 nM was found for `COC(=O)Nc1ccc(C(=O)N[C@@H](Cc2c[nH]c3ccccc23)C(=O)N2CCC[C@@]3(C2)OC(=O)Nc2ccc(Cl)c(F)c23)cc1` [Example 70, methyl (4-(((S)-1-((R)-6-chloro-5-fluoro-2-oxo-1,2-dihydrospiro[benzo[d][1,3]oxazine-4,3′-piperidin]-1′-yl)-3-(1H-indol-3-yl)-1-oxopropan-2-yl)carbamoyl)phenyl)carbamate] in this work.
A Ki of 449 nM was found for `O=C1Nc2ccc(Cl)cc2[C@@]2(CCCN(C(=O)C(Cc3ccc(F)cc3)c3nc4ccc(C(=O)O)cc4[nH]3)C2)O1` (single isomer, unassigned) [Example 132A (isomer B)] in this work.
In the case of `O=C1Nc2ccc(Cl)cc2C2(CCN(C(=O)[C@H](Cc3ccccc3)NS(=O)(=O)c3ccc(C(=O)O)cc3)C2)O1` (stereo partly drawn) [Example 283, 4-(N-((2S)-1-(6-chloro-2-oxo-1,2-dihydrospiro[benzo[d][1,3]oxazine-4,3′-pyrrolidin]-1′-yl)-1-oxo-3-phenylpropan-2-yl)sulfamoyl)benzoic acid], the Ki is reported as ≥ 5000 nM.
A Ki of 203 nM was found for `COC(=O)Nc1ccc(C(=O)N[C@@H](CC(=O)N2CC(N(C)C)C2)C(=O)N2CCC[C@@]3(C2)OC(=O)Nc2ccc(Cl)cc23)cc1` [Example 96, methyl (4-(((S)-1-((R)-6-chloro-2-oxo-1,2-dihydrospiro[benzo[d][1,3]oxazine-4,3′-piperidin]-1′-yl)-4-(3-(dimethylamino)azetidin-1-yl)-1,4-dioxobutan-2-yl)carbamoyl)phenyl)carbamate] in this work.
A Ki of 1870 nM was found for `Nc1nc2ccc(C(=O)N3C[C@H](Cc4ccccc4)C[C@H]3C(=O)N3CC[C@@]4(C3)OC(=O)Nc3ccc(Cl)cc34)cc2s1` [Example 292, (R)-1′-((2S,4R)-1-(2-aminobenzo[d]thiazole-6-carbonyl)-4-benzylpyrrolidine-2-carbonyl)-6-chlorospiro[benzo[d][1,3]oxazine-4,3′-pyrrolidin]-2(1H)-one] in this work.
A Ki of 5000 nM was found for `Nc1[nH]nc2c1CN(C(=O)N[C@@H](Cc1ccccc1)C(=O)N1CCC3(C1)OC(=O)Nc1ccc(Cl)cc13)C2` (stereo partly drawn) [Example 276, 3-amino-N-((2S)-1-(6-chloro-2-oxo-1,2-dihydrospiro[benzo[d][1,3]oxazine-4,3′-pyrrolidin]-1′-yl)-1-oxo-3-phenylpropan-2-yl)-4,6-dihydropyrrolo[3,4-c]pyrazole-5(2H)-carboxamide] in this work.
A Ki of 56.4 nM was found for `COC(=O)Nc1ccc(C(=O)N[C@H](C(=O)N2CCC[C@@]3(C2)OC(=O)Nc2ccc(Cl)c(F)c23)C2CC2)cc1` [Example 68, methyl (4-(((S)-2-((R)-6-chloro-5-fluoro-2-oxo-1,2-dihydrospiro[benzo[d][1,3]oxazine-4,3′-piperidin]-1′-yl)-1-cyclopropyl-2-oxoethyl)carbamoyl)phenyl)carbamate] in this work.
With `O=C1Nc2ccc(Cl)cc2[C@]2(CCN(C(=O)[C@H](Cc3ccccc3)C(=O)Nc3ccc(C(=O)O)cc3)C2)O1` [Example 121b, 4-((R)-2-benzyl-3-((S)-6-chloro-2-oxo-1,2-dihydrospiro[benzo[d][1,3]oxazine-4,3′-pyrrolidin]-1′-yl)-3-oxopropanamido)benzoic acid] the Ki was ≥ 5000 nM.

Same assay, conditions: read-out: FXIa Ki
A Ki of 454 nM was found for `N=C(N)Nc1ccc(C(=O)N[C@@H](Cc2ccccc2)C(=O)N2CCC3(C2)OC(=O)Nc2ccc(Cl)cc23)cc1` (stereo partly drawn) [Example 179, N-((2S)-1-(6-chloro-2-oxo-1,2-dihydrospiro[benzo[d][1,3]oxazine-4,3′-pyrrolidin]-1′-yl)-1-oxo-3-phenylpropan-2-yl)-4-guanidinobenzamide] in this work.
A Ki of 559 nM was found for `O=C1Nc2ccc(Cl)cc2C2(CCN(C(=O)[C@H](Cc3ccccc3)NC(=O)c3cc(O)ncn3)C2)O1` (stereo partly drawn) [Example 177] in this work.
A Ki of 405 nM was found for `O=C1Nc2ccc(Cl)cc2[C@@]2(CCCN(C(=O)[C@H](CC3CC3)NC(=O)c3csc(C(=O)O)n3)C2)O1` [Example 239] in this work.
A Ki of 2150 nM was found for `O=C1Nc2ccc(Cl)cc2C2(CCN(C(=O)[C@H](Cc3ccccc3)NC(=O)c3ccon3)C2)O1` (stereo partly drawn) [Example 156] in this work.
A Ki of 576 nM was found for `CC(=O)Nc1cc(C(=O)N[C@@H](Cc2ccccc2)C(=O)N2CCC3(C2)OC(=O)Nc2ccc(Cl)cc23)ccn1` (stereo partly drawn) [Example 168] in this work.
A Ki of 488 nM was found for `O=C1Nc2ccc(Cl)cc2C2(CCN(C(=O)[C@H](Cc3ccccc3)NC(=O)c3ccc4[nH]ccc4n3)C2)O1` (stereo partly drawn) [Example 153] in this work.
A Ki of 66.8 nM was found for `O=C1Nc2ccc(Cl)c(F)c2[C@@]2(CCCN(C(=O)[C@H](Cc3ccccc3)NC(=O)c3ccc(-n4cn[nH]c4=O)cc3)C2)O1` [Example 247, N-((S)-1-((R)-6-chloro-5-fluoro-2-oxo-1,2-dihydrospiro[benzo[d][1,3]oxazine-4,3′-piperidin]-1′-yl)-1-oxo-3-phenylpropan-2-yl)-4-(5-oxo-1,5-dihydro-4H-1,2,4-triazol-4-yl)benzamide] in this work.
A Ki of 1870 nM was found for `CS(=O)(=O)c1ccc(C(=O)N[C@@H](Cc2ccccc2)C(=O)N2CCC3(C2)OC(=O)Nc2ccc(Cl)cc23)nc1` (stereo partly drawn) [Example 148] in this work.
A Ki of 2520 nM was found for `O=C1Nc2ccc(Cl)cc2C2(CCN(C(=O)[C@H](Cc3ccccc3)NC(=O)c3ccccc3-n3cccn3)C2)O1` (stereo partly drawn) [Example 154, N-((2S)-1-(6-chloro-2-oxo-1,2-dihydrospiro[benzo[d][1,3]oxazine-4,3′-pyrrolidin]-1′-yl)-1-oxo-3-phenylpropan-2-yl)-2-(1H-pyrazol-1-yl)benzamide] in this work.
A Ki of 5000 nM was found for `O=C1Nc2ccc(Cl)cc2C2(CCN(C(=O)[C@H](Cc3ccccc3)NC(=O)c3ccc4c(c3)S(=O)(=O)NC4=O)C2)O1` (stereo partly drawn) [Example 184] in this work.
A Ki of 4030 nM was found for `COc1ccc(C(=O)N[C@@H](Cc2ccccc2)C(=O)N2CCC3(C2)OC(=O)Nc2ccc(Cl)cc23)nc1` (stereo partly drawn) [Example 147] in this work.
